Data taken from PMC8912008, “Pharmacokinetic Study of Withanosides and Withanolides from Withania somnifera Using Ultra-High Performance Liquid Chromatography-Tandem Mass Spectrometry (UHPLC-MS/MS)” (Molecules, 2022).

Experiments:
in vitro = details: rat
[1] = Stability of analytes in rat plasma; details: n = 6; for Processed sample stability (% ± SD): processed rat plasma sample, 4 h; for Bench top Stability (% ± SD) / Autosampler stability (% ± SD) / Freeze-thaw stability (% ± SD): rat plasma; for Bench top Stability (% ± SD): 25 °C for 4 h; for Freeze-thaw stability (% ± SD): three freeze/thaw cycles
[2] = In vivo pharmacokinetic study after oral WSE
From the text: It is known that the hydrophobic interior surface of the cell membrane (lipid bilayer) serves as a barrier to the passage of polar and high molecular weight molecules.
Food pellets and tap water were provided ad libitum throughout the experimentation. The protocol to carry out in vivo pharmacokinetics was approved by The Institutional Animal Ethics Committee (IAEC) of Crystal Biological Solution, Pune, Maharashtra, India. […] Eighteen animals were subdivided into three groups, (n = 6) animals in each group. Withania somnifera extract suspension was prepared in water for oral administration, and the dose was calculated based on the acute oral toxicity study (500 mg/kg; single dose). […] The separated plasma samples were transferred into Eppendorf tubes and stored at −80 °C in a deep freezer until analysis. Ten pharmacokinetic parameters were determined using PK solver 2.0, USA [45, 46, 47]. The maximum observed concentration (Cmax) and maximum observed time (Tmax) were calculated directly from the experimental results. The elimination rate constant (Kel) was calculated from the slope of the linear regression of Log concentrations as a function of time. […] The area under the curve (AUC(0–t)) was calculated from the linear curve following the trapezoidal rule, while AUC(0–∞) was calculated by adding Ct/λ, with Ct being the final measurable concentration. Oral clearance (Cl/F) was obtained from the equation Cl/F = dose/AUC(0–∞). Mean residence time (MRT) was calculated as AUMC(0–∞)/AUC(0–∞), where AUMC(0–∞) is the area under the first moment curve. […] The pharmacokinetic parameters as the average of six rats ± SD. The mean plasma concentration Vs. time curve (mean ± SD) was prepared using Prism 8.2, (GraphPad, San Diego, CA, USA).

[3] = high QC (nominal 200.50-201.50 ng/mL)
[4] = low QC (nominal 10.05-10.50 ng/mL)
[5] = male, Sprague Dawley, rat, in vivo, po, 500 mg/kg

Structure (SMILES)	Papp at 1 h, 2 mg/mL (in vitro) [×10⁻⁶ cm/s]	Processed sample stability (% ± SD) [1, 3] [%]	Processed sample stability (% ± SD) [1, 4] [%]	Bench top Stability (% ± SD) [1, 3] [%]	Bench top Stability (% ± SD) [1, 4] [%]	Autosampler stability (% ± SD) [1, 3] [%]	Autosampler stability (% ± SD) [1, 4] [%]	Freeze-thaw stability (% ± SD) [1, 3] [%]	Freeze-thaw stability (% ± SD) [1, 4] [%]	concentration in plasma ([2]; rat plasma after WSE 500 mg/kg oral, LLOQ 3 ng/mL)	AUC(0-inf) [2, 5] [ng·h/mL]	AUC(0-t) [2, 5] [ng·h/mL]	Cmax [2, 5] [ng/mL]	MRT inf [2, 5] [h]	Tmax [2, 5] [h]	half-life [2, 5] [h]	k el [2, 5] [s⁻¹]	Cl/F (oral clearance) ([2]; rat, in vivo, po, 500 mg/kg)	Vdapp (mean apparent volume of distribution) ([2]; rat, in vivo, po, 500 mg/kg)	oral clearance (Cl/F) ([2]; rat, in vivo, po, 500 mg/kg)
CC1=C(C)C(=O)O[C@@H]([C@@H](C)[C@H]2CC[C@H]3[C@@H]4[C@@H]5O[C@@H]5[C@@]5(O)CC=CC(=O)[C@]5(C)[C@H]4CC[C@]23C)C1 [Withanolide B]	0.0131	95.01 ± 5.83	113.48 ± 47.73	96.83 ± 6.66	95.51 ± 5.04	97.26 ± 3.36	98.84 ± 4.54	93.48 ± 6.55	116.31 ± 36.76	–	–	–	–	–	–	–	–	–	–	–
CC1=C(C)C(=O)O[C@@H]([C@@H](C)[C@@]2(O)CC[C@H]3[C@@H]4[C@@H]5O[C@@H]5[C@@]5(O)CC=CC(=O)[C@]5(C)[C@H]4CC[C@@]32C)C1 [Withanone]	0.0317	99.56 ± 4.91	112.07 ± 37.93	98.87 ± 9.47	96.31 ± 6.27	111.25 ± 4.86	109.47 ± 4.01	98.14 ± 4.74	104.24 ± 7.98	below LLOQ	–	–	–	–	–	–	–	–	–	–
CC1=C(CO)C(=O)O[C@@H]([C@@H](C)[C@H]2CC[C@H]3[C@@H]4CC=C5C[C@@H](O[C@@H]6O[C@H](CO[C@@H]7O[C@H](CO)[C@@H](O)[C@H](O)[C@H]7O)[C@@H](O)[C@H](O)[C@H]6O)C[C@H](O)[C@]5(C)[C@H]4CC[C@]23C)C1 [Withanoside IV]	0.142	101.10 ± 9.54	104.41 ± 4.84	100.34 ± 10.45	104.41 ± 4.84	111.61 ± 0.88	108.21 ± 2.00	98.95 ± 5.47	104.78 ± 5.59	–	22.9 ± 5.73	14 ± 3.7	13.8 ± 3.73	2.08 ± 0.394	0.75	1.1 ± 0.272	0.000182	0.176 ± 0.037	0.278 ± 0.083	0.176 ± 0.037 (mg/kg)/(ng/mL)/h
CC1=C(C)C(=O)O[C@@H]([C@@H](C)[C@H]2CC[C@H]3[C@@H]4CC=C5C[C@@H](O[C@@H]6O[C@H](CO[C@@H]7O[C@H](CO)[C@@H](O)[C@H](O)[C@H]7O)[C@@H](O)[C@H](O)[C@H]6O)C[C@H](O)[C@]5(C)[C@H]4CC[C@]23C)C1 [Withanoside V]	0.0343	90.47 ± 6.50	134.85 ± 90.10	91.74 ± 8.97	99.58 ± 8.68	111.25 ± 4.54	109.83 ± 8.35	99.38 ± 6.58	105.13 ± 6.95	–	–	–	–	–	–	–	–	–	–	–
